Measured values reported in article PMC10746112, “Synthesis and Pro-Apoptotic Effects of Nitrovinylanthracenes and Related Compounds in Chronic Lymphocytic Leukaemia (CLL) and Burkitt’s Lymphoma (BL)” (Molecules, 2023).
pIC50: −log10 of the molar value. Where two headings read alike, the source gives them in different places.

Legend:
[1] = system: MDA-MB-231 human breast cancer cells; experiment: alamarBlue cell viability assay; assay type: cell-based; settings: eight concentrations 0.001–50 μM
HG-3 CLL cells = experiment: Annexin V/PI apoptotic assay (FACS); assay type: cell-based; settings: 48 h
Experimental: (§1) The pro-apoptotic effects of the selected nitrovinylanthracene compounds 19a, 19g, 19i, 19l and 19m after 48 h were next determined using FITC (fluorescein isothiocyanate), Annexin V/PI (propidium iodide) staining and FACS (fluorescence-activated cell sorting) analysis to characterize the mode of cellular death induced. […] The CLL cells PGA1 and HG3 (1 × 10^6 cells/mL) were treated at 37 °C with either vehicle (1% (v/v) DMSO) or the nitrostyrene compounds 19a (10 μM, 5 μM and 1 μM) and 19g, 19i, 19l and 19m (10 μM and 1 μM) for 48 h. The cells were then harvested by centrifugation at 400× g in a temperature-controlled Sorvall centrifuge and rinsed with 0.5 mL of Ca^2+ Annexin-V-binding buffer (0.1 M HEPES, pH 7.4; 0.14 M NaCl; 25 mM CaCl2). The samples were resuspended in 50 µL FITC Annexin V (diluted 1:33 in Ca^2+ Annexin V-binding buffer), incubated on ice for 10 min (protected from light), washed with Annexin-V-binding buffer and re-suspended in 500 µL of propidium iodide (PI) solution (0.5 µg/mL). The samples were analysed within 1 h using a BD Accuri C6 flow cytometer counting 10,000 cells and analysed using the FlowJo software (FlowJo LLC, Ashland, OR, USA) package.

PGA-1 CLL cells = experiment: Annexin V/PI apoptotic assay (FACS); assay type: cell-based; settings: 48 h
Experimental: as §1

[2] = system: MUTU-I Burkitt’s lymphoma cell line; experiment: alamarBlue cell viability assay; settings: MUTU-I; for viability at 1 µM / viability at 10 µM: 24 h; for viability at 1 µM: read-out: % Viable Cells Remaining MUTU-1, 1 µM, 24 h; for viability at 10 µM: read-out: % Viable Cells Remaining MUTU-1, 10 µM, 24 h
[3] = system: DG-75 Burkitt’s lymphoma cell line; experiment: alamarBlue cell viability assay; settings: Homo sapiens; for viability at 1 µM / viability at 10 µM: DG-75, 48 h; for viability at 1 µM: read-out: % Viable Cells Remaining DG-75, 1 µM, 48 h; for viability at 10 µM: read-out: % Viable Cells Remaining DG-75, 10 µM, 48 h
[4] = system: MCF-7 human breast cancer cells; experiment: alamarBlue cell viability assay; settings: MCF7, read-out: MCF-7 IC50
HG-3 CLL cell line = experiment: alamarBlue cell viability assay; settings: for viability at 10 µM / pIC50: 24 h; for viability at 10 µM: read-out: % Viability HG-3, 10 µM, 24 h
PGA-1 CLL cell line = experiment: alamarBlue cell viability assay; settings: 24 h; for viability at 10 µM: read-out: % Viability PGA-1, 10 µM, 24 h
[5] = system: MUTU-I Burkitt’s lymphoma cell line; settings: read-out: IC50 MUTU-I; previous work; cited from earlier work
[6] = system: DG-75 Burkitt’s lymphoma cell line; settings: read-out: IC50 DG-75; previous work; cited from earlier work
[7] = CLL cell, read-out: HG-3 IC50, 24 h
[8] = CLL cell, read-out: PGA-1 IC50, 24 h

Row | SMILES | pIC50 [1] | total apoptosis (HG-3 CLL cells; HG-3, 1 μM) | total apoptosis (HG-3 CLL cells; HG-3, 10 μM) | total apoptosis (PGA-1 CLL cells; PGA-1, 10 μM) | viability at 1 µM [2] | viability at 10 µM [2] | viability at 1 µM [3] | viability at 10 µM [3] | pIC50 [4] | viability at 10 µM (HG-3 CLL cell line; CLL cell) | pIC50 (HG-3 CLL cell line; [7]) | viability at 10 µM (PGA-1 CLL cell line; CLL cell) | pIC50 (PGA-1 CLL cell line; [8]) | other results
1 | COc1c2ccccc2c(/C=C/[N+](=O)[O-])c2ccccc12 [Compound 19g] | 5.42 | 11% | 54% | 52% | 90.1% | 1.85% | 89.2% | 13.8% | 5.27 | 0.5 to 8.3% | 6.77 | 1.21% | 5.89 | fold greater response (IC50) in HG-3 compared to PGA-1 cells (HG-3 CLL cell line; ratio of IC50 values): 7.8 fold; viability at 1 µM (PGA-1 CLL cell line; CLL cell, read-out: % Viability PGA-1, 1 µM, 24 h): 43%; pIC50 (PGA-1 CLL cell line; read-out: PGA-1 IC50): 5.89
2 | Cc1c2ccccc2c(/C=C/[N+](=O)[O-])c2ccccc12 [Compound 19i, (E)-9-Methyl-10-(2-Nitrovinyl)Anthracene] | 5.49 | – | 70% | 80% | 94.5% | 1.95% | 96.7% | 19.5% | 5.68 | 0.5 to 8.3% | 5.41 | 2.9% | 5.36 | –
3 | O=[N+]([O-])/C=C/c1c2ccccc2cc2ccccc12 [Compound 19a, (E)-9-(2-nitrovinyl)anthracene] | 5.42 | 21% | 93% | 94% | 82.5% | 5.91% | 94.6% | 14% | 5.73 | 8% | 5.62 | 5.1% | 5.51 | total apoptosis (HG-3 CLL cells; HG-3, 5 μM): 69%; total apoptosis (PGA-1 CLL cells; PGA-1, 1 μM): 40%; total apoptosis (PGA-1 CLL cells; PGA-1, 5 μM): 67%; pIC50 [5]: 5.52; pIC50 [6]: 5.82; pIC50 ([2]; read-out: IC50 MUTU-I): 5.59; pIC50 ([3]; DG-75, read-out: IC50 DG-75): 5.68; pIC50 (HG-3 CLL cell line; read-out: HG-3 IC50): 5.61
